Read-outs that look alike come from different tables or passages of the source. A value given as a limit tells only on which side of the number the result lay.

Assay type in all cases: cell-based
The test system of experiment [1] is TICs (Ovarian 2393A). Nature of the experiment: Ovarian tumor-initiating cell growth inhibition (Alamar Blue). To be noted: 144 h, 6 days, read-out: Tumor Initiating Cell GI50 Range Ovarain 2393A.
The test system of experiment [2] is ovarian cancer cells (PA-1). Nature of the experiment: Cancer cell line growth inhibition (SRB assay). To be noted: read-out: Cancer Cell Line GI50 Range PA-1. On the technique in general: The SRB assay estimates cell density from bound dye.
Experiment [3] has as its system TICs (Colon 12). Nature of the experiment: Colon tumor-initiating cell growth inhibition (Alamar Blue). The note with it: 216 h, 9 days, read-out: Tumor Initiating Cell GI50 Range Colon 12. Background: Resazurin is reduced to fluorescent resorufin, in cell work by metabolically active cells.
For experiment [4], the system named is colon cancer cells (HCT116). Nature of the experiment: Cancer cell line growth inhibition (SRB assay). To be noted: Homo sapiens, HCT-116, read-out: Cancer Cell Line GI50 Range HCT116.
The mark [5] stands for this setting: PA-1 ovarian cancer cells, SRB assay.
Where [6] appears, read: HCT116 colon cancer cells, SRB assay.

With `CN1CCC(Oc2ccc(-c3n[nH]c4ccc(NC(=O)C(OC5CCCC5)c5ccccc5)cc34)cc2)CC1` (stereo not shown) [Example A183, 2-(cyclopentyloxy)-N-(3-(4-((1-methylpiperidin-4-yl)oxy)phenyl)-1H-indazol-5-yl)-2-phenylacetamide], the GI50 was above 0.5 µM in experiment [1] (ovarian TICs, Alamar Blue); 0.1 to 0.5 µM in experiment [2] (setting [5]); above 0.5 µM in experiment [3] (colon TICs, Alamar Blue); 0.1 to 0.5 µM in experiment [4] (setting [6]).

In the case of `O=C(NC(c1ccccc1)C1CC1)c1ccc2[nH]nc(-c3ccc(N4CCOCC4)cc3)c2c1` (stereo not shown) [Example A12, N-(cyclopropyl(phenyl)methyl)-3-(4-morpholinophenyl)-1H-indazole-5-carboxamide], the GI50 was 0.1 to 0.5 µM in experiment [1] (ovarian TICs, Alamar Blue); above 0.5 µM in experiment [3] (colon TICs, Alamar Blue); below 0.1 µM in experiment [4] (setting [6]).

With `CN1CCC(Oc2ccc(-c3n[nH]c4ccc(C(=O)N[C@H](c5ccccn5)C5CC5)cc34)cc2)CC1` [Example A214, (S)-N-(cyclopropyl(pyridin-2-yl)methyl)-3-(4-((1-methylpiperidin-4-yl)oxy)phenyl)-1H-indazole-5-carboxamide], the 50% growth inhibitory concentration (GI50) in experiment [1] (Ovarian 2393A TICs) was below 0.1 µM; in experiment [2] (Homo sapiens, PA-1) it was below 0.1 µM; in experiment [3] (Colon 12 TICs), above 0.5 µM; in experiment [4], below 0.1 µM.

With `C[C@@H](NC(=O)c1ccc2[nH]nc(-c3ccc(OC4CCN(C)CC4)cc3)c2c1)c1ccccc1F` [Example A134, (R)-N-(1-(2-fluorophenyl)ethyl)-3-(4-((1-methylpiperidin-4-yl)oxy)phenyl)-1H-indazole-5-carboxamide], the GI50 in experiment [1] (ovarian TICs, Alamar Blue) is above 0.5 µM; in experiment [2] (setting [5]), 0.1 to 0.5 µM; in experiment [3] (colon TICs, Alamar Blue), 0.1 to 0.5 µM; in experiment [4] (setting [6]), below 0.1 µM.

Consider `CN1CCC(Oc2ccc(-c3n[nH]c4ccc(C(=O)NC(c5ccccn5)C5CCC5)cc34)cc2)CC1` (stereo not shown) [Example A210, N-(cyclobutyl(pyridin-2-yl)methyl)-3-(4-((1-methylpiperidin-4-yl)oxy)phenyl)-1H-indazole-5-carboxamide], for which the 50% growth inhibitory concentration (GI50) in experiment [1] (Ovarian 2393A TICs) was 0.1 to 0.5 µM; in experiment [2] (Homo sapiens, PA-1), below 0.1 µM; in experiment [3] (Colon 12 TICs), 0.1 to 0.5 µM; in experiment [4], below 0.1 µM.

Turning to `CC1(O)CCN(c2ccc(-c3n[nH]c4ccc(NC(=O)C(c5ccsc5)N5CCCC5)cc34)cc2)CC1` (stereo not shown) [Example A89, N-(3-(4-(4-hydroxy-4-methylpiperidin-1-yl)phenyl)-1H-indazol-5-yl)-2-(pyrrolidin-1-yl)-2-(thiophen-3-yl)acetamide], the GI50 is 0.1 to 0.5 µM in experiment [1] (ovarian TICs, Alamar Blue); below 0.1 µM in experiment [2] (setting [5]); 0.1 to 0.5 µM in experiment [3] (colon TICs, Alamar Blue); below 0.1 µM in experiment [4] (setting [6]).

`CN1CCC(Oc2ccc(-c3n[nH]c4ccc(C(=O)NC(c5ccccc5)C5CCOCC5)cc34)cc2)CC1` (stereo not shown) [Example A177, 3-(4-((1-methylpiperidin-4-yl)oxy)phenyl)-N-(phenyl(tetrahydro-2H-pyran-4-yl)methyl)-1H-indazole-5-carboxamide]: the GI50 in experiment [1] (ovarian TICs, Alamar Blue) is 0.1 to 0.5 µM; in experiment [2] (setting [5]), 0.1 to 0.5 µM; in experiment [3] (colon TICs, Alamar Blue) it was 0.1 to 0.5 µM; in experiment [4] (setting [6]) it was below 0.1 µM.

Take `Cc1ccccc1C(NC(=O)c1ccc2[nH]nc(-c3ccc(OC4CCN(C)CC4)cc3)c2c1)C1CC1` (stereo not shown) [Example A132, N-(cyclopropyl(o-tolyl)methyl)-3-(4-((1-methylpiperidin-4-yl)oxy)phenyl)-1H-indazole-5-carboxamide]: the concentration for 50% growth inhibition (GI50) is 0.1 to 0.5 µM in experiment [1] (ovarian TICs, Alamar Blue); below 0.1 µM in experiment [2] (setting [5]); below 0.1 µM in experiment [3] (colon TICs, Alamar Blue); below 0.1 µM in experiment [4] (setting [6]).

Regarding `O=C(Nc1ccc2[nH]nc(-c3ccc(N4CCC(O)CC4)cc3)c2c1)C(c1ccsc1)N1CCC1` (stereo not shown) [Example A200, 2-(azetidin-1-yl)-N-(3-(4-(4-hydroxypiperidin-1-yl)phenyl)-1H-indazol-5-yl)-2-(thiophen-3-yl)acetamide], the GI50 in experiment [1] (ovarian TICs, Alamar Blue) is below 0.1 µM; in experiment [2] (setting [5]), below 0.1 µM; in experiment [3] (colon TICs, Alamar Blue) it was 0.1 to 0.5 µM; in experiment [4] (setting [6]) it was below 0.1 µM.

Regarding `O=C(N[C@H](c1ccccn1)C1CC1)c1ccc2[nH]nc(-c3ccc(OC4CCN(C5COC5)CC4)cc3)c2c1` [Example A197, (S)-N-(cyclopropyl(pyridin-2-yl)methyl)-3-(4-((1-(oxetan-3-yl)piperidin-4-yl)oxy)phenyl)-1H-indazole-5-carboxamide], the GI50 is below 0.1 µM in experiment [1] (ovarian TICs, Alamar Blue); below 0.1 µM in experiment [2] (setting [5]); below 0.1 µM in experiment [3] (colon TICs, Alamar Blue); below 0.1 µM in experiment [4] (setting [6]).

In the case of `O=C(NC(c1ccccc1)C1CC1)c1ccc2[nH]nc(-c3ccc(OC4CN(C5COC5)C4)cc3)c2c1` (stereo not shown) [Example A190, N-(cyclopropyl(phenyl)methyl)-3-(4-((1-(oxetan-3-yl)azetidin-3-yl)oxy)phenyl)-1H-indazole-5-carboxamide], the GI50 fell in the range of 0.1 to 0.5 µM in experiment [1] (ovarian TICs, Alamar Blue); 0.1 to 0.5 µM in experiment [2] (setting [5]); 0.1 to 0.5 µM in experiment [3] (colon TICs, Alamar Blue); 0.1 to 0.5 µM in experiment [4] (setting [6]).

On to `CN1[C@@H]2CC[C@H]1C[C@@H](Oc1ccc(-c3n[nH]c4ccc(C(=O)N[C@H](c5ccccn5)C5CC5)cc34)cc1)C2` [Example A213, N-((S)-cyclopropyl(pyridin-2-yl)methyl)-3-(4-(((1R,3R,5S)-8-methyl-8-azabicyclo[3.2.1]octan-3-yl)oxy)phenyl)-1H-indazole-5-carboxamide], for which the concentration for 50% growth inhibition (GI50) in experiment [1] (Ovarian 2393A TICs) was below 0.1 µM; in experiment [2] (Homo sapiens, PA-1), below 0.1 µM; in experiment [3] (Colon 12 TICs), above 0.5 µM; in experiment [4], below 0.1 µM.

In the case of `O=C(N[C@@H](c1ncccc1Cl)C1CC1)c1ccc2[nH]nc(-c3ccc(OC4CCN(C5COC5)CC4)cc3)c2c1` [Example A215, (R)-N-((3-chloropyridin-2-yl)(cyclopropyl)methyl)-3-(4-((1-(oxetan-3-yl)piperidin-4-yl)oxy)phenyl)-1H-indazole-5-carboxamide], the GI50 was 0.1 to 0.5 µM in experiment [1] (Ovarian 2393A TICs); below 0.1 µM in experiment [2] (Homo sapiens, PA-1); below 0.1 µM in experiment [3] (Colon 12 TICs); below 0.1 µM in experiment [4].

As to `O=C(Nc1ccc2[nH]nc(-c3ccc(OC4CN(C5COC5)C4)cc3)c2c1)C(c1ccsc1)N1CCCC1` (stereo not shown) [Example A189, N-(3-(4-((1-(oxetan-3-yl)azetidin-3-yl)oxy)phenyl)-1H-indazol-5-yl)-2-(pyrrolidin-1-yl)-2-(thiophen-3-yl)acetamide], the GI50 is above 0.5 µM in experiment [1] (ovarian TICs, Alamar Blue); below 0.1 µM in experiment [2] (setting [5]); above 0.5 µM in experiment [3] (colon TICs, Alamar Blue); below 0.1 µM in experiment [4] (setting [6]).

In the case of `CC(C)C(NC(=O)c1ccc2[nH]nc(-c3ccc(OC4CCN(C)CC4)cc3)c2c1)c1ccccc1Cl` (stereo not shown) [Example A144, N-(1-(2-chlorophenyl)-2-methylpropyl)-3-(4-((1-methylpiperidin-4-yl)oxy)phenyl)-1H-indazole-5-carboxamide], the GI50 in experiment [1] (ovarian TICs, Alamar Blue) was below 0.1 µM; in experiment [2] (setting [5]) it was below 0.1 µM; in experiment [3] (colon TICs, Alamar Blue), below 0.1 µM; in experiment [4] (setting [6]), below 0.1 µM.

As for `O=C(Nc1ccc2[nH]nc(-c3ccc(OC4CCN(C5COC5)CC4)cc3)c2c1)C(c1ccccc1)C1CC1` (stereo not shown) [Example A185, 2-cyclopropyl-N-(3-(4-((1-(oxetan-3-yl)piperidin-4-yl)oxy)phenyl)-1H-indazol-5-yl)-2-phenylacetamide], the GI50 in experiment [1] (ovarian TICs, Alamar Blue) lay in the range of 0.1 to 0.5 µM; in experiment [2] (setting [5]), 0.1 to 0.5 µM; in experiment [3] (colon TICs, Alamar Blue), 0.1 to 0.5 µM; in experiment [4] (setting [6]), 0.1 to 0.5 µM.

Turning to `COCCN1CCC(Oc2ccc(-c3n[nH]c4ccc(C(=O)NC(c5ccccc5)C5CC5)cc34)cc2)CC1` (stereo not shown) [Example A98, N-(cyclopropyl(phenyl)methyl)-3-(4-((1-(2-methoxyethyl)piperidin-4-yl)oxy)phenyl)-1H-indazole-5-carboxamide], the GI50 was 0.1 to 0.5 µM in experiment [1] (ovarian TICs, Alamar Blue); below 0.1 µM in experiment [2] (setting [5]); 0.1 to 0.5 µM in experiment [3] (colon TICs, Alamar Blue); below 0.1 µM in experiment [4] (setting [6]).

For `CO[C@@H](C(=O)Nc1ccc2[nH]nc(-c3ccc(OC4CCN(C)CC4)cc3)c2c1)c1ccccc1` [Example A27, (R)-2-methoxy-N-(3-(4-((1-methylpiperidin-4-yl)oxy)phenyl)-1H-indazol-5-yl)-2-phenylacetamide], the GI50 in experiment [1] (ovarian TICs, Alamar Blue) is 0.1 to 0.5 µM; in experiment [3] (colon TICs, Alamar Blue), 0.1 to 0.5 µM; in experiment [4] (setting [6]) it was below 0.1 µM.

For the compound `O=C(NC(c1ccsc1)C1CC1)c1ccc2[nH]nc(-c3ccc(N4CCOCC4)cc3)c2c1` (stereo not shown) [Example A35, N-(cyclopropyl(thiophen-3-yl)methyl)-3-(4-morpholinophenyl)-1H-indazole-5-carboxamide], the GI50 in experiment [1] (ovarian TICs, Alamar Blue) is 0.1 to 0.5 µM; in experiment [3] (colon TICs, Alamar Blue) it was above 0.5 µM; in experiment [4] (setting [6]) it was below 0.1 µM.

Turning to `CCc1cccc(CC)c1NC(=O)Nc1ccc2[nH]nc(-c3ccc(OC4CCN(C)CC4)cc3)c2c1` [Example A46, 1-(2,6-diethylphenyl)-3-(3-(4-((1-methylpiperidin-4-yl)oxy)phenyl)-1H-indazol-5-yl)urea], the GI50 in experiment [1] (ovarian TICs, Alamar Blue) was 0.1 to 0.5 µM; in experiment [3] (colon TICs, Alamar Blue), above 0.5 µM; in experiment [4] (setting [6]), below 0.1 µM.

Regarding `CN1CCC(Oc2ccc(-c3n[nH]c4ccc(C(=O)NC(c5ccsc5)C5CC5)cc34)cc2)CC1` (stereo not shown) [Example A33, N-(cyclopropyl(thiophen-3-yl)methyl)-3-(4-((1-methylpiperidin-4-yl)oxy)phenyl)-1H-indazole-5-carboxamide], the GI50 is 0.1 to 0.5 µM in experiment [1] (ovarian TICs, Alamar Blue); 0.1 to 0.5 µM in experiment [3] (colon TICs, Alamar Blue); below 0.1 µM in experiment [4] (setting [6]).

As for `C[C@H]1CCCN1[C@H](C(=O)Nc1ccc2[nH]nc(-c3ccc(OC4CCN(C)CC4)cc3)c2c1)c1ccsc1` [Example A41, (S)-N-(3-(4-((1-methylpiperidin-4-yl)oxy)phenyl)-1H-indazol-5-yl)-2-((S)-2-methylpyrrolidin-1-yl)-2-(thiophen-3-yl)acetamide], the GI50 was below 0.1 µM in experiment [1] (ovarian TICs, Alamar Blue); 0.1 to 0.5 µM in experiment [3] (colon TICs, Alamar Blue); below 0.1 µM in experiment [4] (setting [6]).

`O=C(Nc1ccc2[nH]nc(-c3ccc(N4CCOCC4)cc3)c2c1)C(c1ccsc1)N1CCCC1` (stereo not shown) [Example A4]: the GI50 in experiment [1] (ovarian TICs, Alamar Blue) is 0.1 to 0.5 µM; in experiment [3] (colon TICs, Alamar Blue), below 0.1 µM; in experiment [4] (setting [6]), below 0.1 µM.

Usually GI50 stands for the concentration at which growth is held to half of that of the control.

Values taken from US9580390B2, “Indazole compounds as kinase inhibitors and method of treating cancer with same” (University Health Network, priority 2011, dated 2017).
